Consider 5 molecules from patent US5565488A, “Oxalylamino-benzofuran- and benzothienyl-derivatives” (Bayer Aktiengesellschaft, priority 1994, dated 1996).

The test system of experiment [1] is human PMN. Nature of the experiment: Inhibition of FMLP-stimulated production of superoxide radical anions. It counts as cell-based. Conditions: Neutrophil, human neutrophils; for IC50: 4×10^-8 M FMLP. As to the method: 1. Preparation of human PMN
Blood was taken from healthy subjects by venous puncture and neutrophils were purified by dextran sedimentation and resuspended in the buffered medium.
2. Inhibition of FMLP-stimulated production of superoxide radical anions.
Neutrophils (2.5×10^5 ml^-1) were mixed with cytochrome C (1.2 mg/ml) in the wells of a microtitre plate. Compounds according to the invention were added in dimethyl sulphoxide (DMSO). Compound concentration ranged from 2.5 nM to 10 μM, the DMSO concentration was 0.1% v/v in all wells. After addition of cytochalasin b (5 μg×ml^-1) the plate was incubated for 5 min at 37° C. Neutrophils were then stimulated by addition of 4×10^-8 M FMLP and superoxide generation measured as superoxide dismutase inhibitable reduction of cytochrome C by monitoring the OD550 in a Thermomax microtitre plate spectrophotometer. Initial rates were calculated using a Softmax kinetic calculation programme. Blank wells contained 200 units of superoxide dismutase.
The inhibition of superoxide production was calculated as follows: [formula] Rx=Rate of the well containing the compound according to the invention. Ro=Rate in the control well.
Rb=Rate in the superoxide dismutase containing blank well.

Experiment [2] has as its system FMLP-induced skin oedema. Nature of the experiment: Effect of intravenously administered compounds on the FMLP-induced skin oedema guinea pigs. Format: in vivo. Conditions: i.v., 1 mg/kg, guinea pig. How it is done: 5. Effect of intravenously administered compounds on the FMLP-induced skin oedema guinea pigs
Guinea pigs (600-800 g) were anaesthetized with pentobarbitone sodium (40 mg/kg, i.p.) and injected (i.v.) with a 0.5 ml mixture of pentamine sky blue (5% W/V) and ^125 I-HSA (1 μli/animal). 10 minutes later 3 intradermal injections of FMLP (10 μg/site), 1 injection of histamine (1 μg/site) and 1 injection of vehicle (100 μl of 0.2% DMSO V/V in Hanks Buffered salt solution) were made on the left hand side of the animal (preinjection sites). 5 minutes later the drug (1 ml/kg) or the vehicle (50% PEG 400 V/V in distilled water, […]) was administered (i.v.). 10 minutes later an identical pattern of interadermal injections was made on the opposite flank of the animal (post-injection sites). These responses were allowed-to develop for 15 minutes before the animal was sacrificed and a blood sample taken.
Skin sites and plasma samples were counted for 1 minute on a gamma counter an the degree of oedema calculated as μl plasma/skin site. Statistical analysis was done by a paired t-test on the mean of the 3 preinjection site values of μl plasma obtained for FMLP/animal. The percentage inhibition of drug or vehicle was calculated as follow

In experiment [1], `CCOC(=O)C(=O)Nc1ccc2c(C)c(C(=O)c3ccc(C)cc3)oc2c1` [Example 6] returned an inhibition at 10 µM of 67% and a 50% inhibitory concentration (IC50) of 0.11 µM. On to `CCOC(=O)C(=O)Nc1ccc2c(CCC(=O)OC)c(C(=O)c3ccc(C)cc3)oc2c1` [Example 2], for which the “% inhibition” value in experiment [2] came to 47%. As to `CCOC(=O)C(=O)Nc1ccc2c(CCC(=O)OC)c(C(=O)c3ccncc3)oc2c1` [Example 344], in experiment [1], the inhibition at 10 µM amounted to 81% and the IC50 is 0.2 µM. On the same counts, the results for `CCOC(=O)C(=O)Nc1ccc2c(CCC(=O)OC)c(C(=O)c3ccc(Cl)cc3)oc2c1` [Example 7] are 86% and 0.9 µM. On the same counts, the results for `COC(=O)CCc1c(C(=O)c2ccc(Cl)cc2)oc2cc(NC(=O)C(=O)OC)ccc12` [Example 1, 3-[2-(4-Chlorobenzoyl)-6-(2-methoxy-2-oxo-acetamido)-3-benzofuranyl]propanoic acid, methylester] are 62% and 0.17 µM.

A word on the inhibition: it is the percentage by which the read-out fell short of the control. A lower inhibition goes with little suppression. The IC50 is the concentration at which inhibition is half-maximal. The low end stands for greater potency, the high end for weaker potency. As a reminder, the % inhibition is the share of the control response that was lost under treatment. Read a high % inhibition as a strong effect.
